Test system: HT22 cells
Test: MitoTracker Red mitochondrial membrane potential in glutamate challenged HT22 cells
Type: cell-based
Settings: 1 μM, HT22 cells challenged with glutamate
Source text: The mechanism of protection was investigated. […] FIG. 15B show quantification of fluorescent intensity per cell (n=3, *p<0.05, **p<0.01, bars represent S.E.M.).

For `CCCCC[C@H](O)[C@H](O)/C=C/C=C/C=C\C=C\[C@@H](O)CCCC(=O)O` [LXB4, 5S,14R,15S-trihydroxy-6E,8Z,10E,12E-eicosatetraenoic acid], the “glutamate induced increase in mitochondrial membrane potential (MitoTracker Red)” value was “blocked the glutamate induced increase in mitochondrial membrane potential”.

— patent publication US11439615B2, “Lipoxin and lipoxin analogue mediated neuroprotection and treatments” (University Health Network, priority 2017, dated 2022)
